This passage reports DC50, GI50 and IC50 results from US20240376094A2, “SELECTIVE BCL-XL PROTAC COMPOUNDS AND METHODS OF USE” (Les Laboratoires Servier, priority 2021, published 2024).

Common to all, as to type: cell-based
In one assay the target is T1, HiBiT-tagged BCL-xL (Homo sapiens, UniProt Q07817).
T1 construct: expressed in transfected cells; host or cells: NCI-H1650 (ATCC No. CRL-5883), engineered HiBiT cell line
Kind of assay: NCI-H1650 BCL-xL protein levels, Nano-Glo HiBiT Lytic Detection. The conditions noted are these: NCI-H1650 expressing HiBiT-tagged BCL-xL, overnight incubation, read-out: Bcl-xl HIBIT NCIH1650 DC50. The method, then: (§1) The ability of the BCL-xL degrader low molecular weight compounds to degrade BCL-xL protein was assessed using the Promega Nano-Glo® HiBiT Lytic Detection System. The NCI-H1650 (ATCC No. CRL-5883) was engineered to express HiBiT-tagged BCL-xL. The NCI-H1650 HiBiT cell line was cultured in media that is optimal for their growth at 5% CO2, 37° C. in a tissue culture incubator. Prior to seeding for the protein level assay, the cells were split at least 2 days before the assay to ensure optimal growth density. On the day of seeding, cells were lifted off tissue culture flasks using 0.25% trypsin. Cell viability and cell density were determined using a cell counter (Vi-Cell XR Cell Viability Analyzer, Beckman Coulter). Cells with higher than 85% viability were seeded in white clear bottom 384-well plates (Greiner cat #781098) at a density of 5000 cells per well in 30 μL of standard growth media. Plates were incubated at 37° C. overnight in a tissue culture incubator.
(§2) The BCL-xL degrader low molecular weight compounds were prepared to desired concentrations. A series of 10 dilutions were made for each prepared compound. The prepared compounds were then added to the cells resulting in final concentrations of 0.508 nM-10 μM. An acoustic transfer device (Echo555, Beckman Coulter) was used to add the compounds to the cells. Each treatment was tested in triplicate assay plates. Plates were incubated at 37° C. overnight in a tissue culture incubator.
BCL-xL degradation was assessed through the addition of 30 μL of Nano-Glo® HiBiT Lytic Reagent (Promega, cat #N3040), a reagent which lyses cells and contains a furimazine substrate and the large subunit (LgBiT) used in NanoLuc® Binary Technology. The LgBiT subunit having high affinity to a HiBiT-tagged protein will bind HiBiT, if present, resulting in complex formation of a luminescent NanoBiT® enzyme. This reaction will emit a luminescent signal proportional to the amount of HiBiT-tagged BCL-xL present in the cell lysate. Plates were incubated at room temperature for 20 minutes to stabilize luminescent signals prior to reading using a luminescence reader (PHERAstar FSX Microplate Reader, BMG Labtech).
To evaluate the effect of the drug treatments, luminescent counts from wells containing untreated cells (100% HiBiT-tagged BCL-xL) were used to normalize treated samples. The concentrations of treatment required to inhibit 50% were calculated using a four parameter logistic regression equation.

Assay [1] has as its system EBC-1 lung cancer cell line. Kind of assay: EBC-1 cell proliferation, CellTiter-Glo assay. The conditions noted are these: Homo sapiens, 120 h; Ebc-1 cell viability, CTG assay, 5 days of treatment; read-out: CTG 5 day Ebc1 GI50. The procedure: as §1, with “to inhibit cell proliferation and survival” for “to degrade BCL-xL protein”, “Promega CellTiter-Glo® proliferation assay on the EBC-1 lung cancer” for “Promega Nano-Glo® HiBiT Lytic Detection System. The NCI-H1650 (ATCC No. CRL-5883) was engineered to express HiBiT-tagged BCL-xL. The NCI-H1650 HiBiT”, “line (RCB1965, obtained from RIKEN.) The cells were” for “line was”, “the proliferation” for “the protein level”, “of 1000” for “of 5000”, “in 50” for “in 30”
as §2, with “overnight or for 5 days” for “overnight”, “incubator. The ability of the compounds to inhibit cell proliferation and survival was assessed using the Promega CellTiter-Glo® proliferation assay. Plates were incubated at room temperature for 20 minutes to stabilize luminescent signals prior to reading using a multimode plate reader (PHERAstar FSX Microplate Reader, BMG Labtech).” for “incubator.”
To evaluate the effect of the compound treatments, luminescent counts of untreated cells were taken the day after seeding (Day 0 readings), and after 5 days of treatment (Day 5 readings). The Day 5 readings of the untreated cells were compared to the Day 0 readings. Assays with at least one cell doubling during the incubation period were considered valid. To evaluate the effect of the drug treatments, luminescent counts from wells containing untreated cells (100% viability) were used to normalize treated samples. The concentrations of treatment required to inhibit 50% of cell growth or survival ([…]) were calculated using a four parameter logistic regression equation.

The test system of the next assay is MOLT-4 cells. Kind of assay: MOLT-4 cell viability, CTG assay. The conditions noted are these: Homo sapiens, MOLT-4, 48 h. The method, boiled down: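 Viability read as total ATP luminescence (CTG) after 48 h compound treatment, 11 points at 5-fold spacing in triplicate, cells in RPMI 1640/10% FBS. IC50 is the concentration halving signal relative to control, four-parameter fit, averaged over at least 2 experiments.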

T1 sequence (Q07817 whole entry): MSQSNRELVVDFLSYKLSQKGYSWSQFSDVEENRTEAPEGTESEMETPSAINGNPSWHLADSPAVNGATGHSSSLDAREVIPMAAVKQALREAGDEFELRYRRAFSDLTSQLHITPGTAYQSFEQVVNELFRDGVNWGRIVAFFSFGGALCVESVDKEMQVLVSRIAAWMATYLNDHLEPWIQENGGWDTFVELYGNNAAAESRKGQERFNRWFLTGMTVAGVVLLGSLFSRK

Regarding `Cc1ncsc1-c1ccc([C@H](C)NC(=O)[C@@H]2C[C@@H](O)CN2C(=O)[C@@H](NC(=O)C2CCN(C(=O)CCCCCCCCCCCN(C)CCOC34CC5(C)CC(C)(CC(Cn6ncc(-c7ccc(N8CCCc9c8nnc(Nc8nc%10ccccc%10s8)c9C)nc7C(=O)O)c6C)(C5)C3)C4)CC2)C(C)(C)C)cc1` [Example 86, 6-[3-(1,3-benzothiazol-2-ylamino)-4-methyl-6,7-dihydro-5H-pyrido[2,3-c]pyridazin-8-yl]-3-[1-[[3-[2-[[12-[4-[[(1S)-1-[(2S,4R)-4-hydroxy-2-[[(1S)-1-[4-(4-methylthiazol-5-yl)phenyl]ethyl]carbamoyl]pyrrolidine-1-carbonyl]-2,2-dimethyl-propyl]carbamoyl]-1-piperidyl]-12-oxo-dodecyl]-methyl-amino]ethoxy]-5,7-dimethyl-1-adamantyl]methyl]-5-methyl-pyrazol-4-yl]pyridine-2-carboxylic acid], the DC50 at HiBiT-tagged BCL-xL is greater than 1670 nM. Moreover, in assay [1], the GI50 came out at 18 nM. Further, the IC50 in the assay on MOLT-4 cells was found to be 13.7 nM.
Regarding `Cc1ncsc1-c1ccc([C@H](C)NC(=O)[C@@H]2C[C@@H](O)CN2C(=O)[C@@H](NC(=O)[C@H]2CCCN(C(=O)c3nc(N4CCCc5c4nnc(Nc4nc6ccccc6s4)c5C)ccc3-c3cnn(CC45CC6(C)CC(C)(C4)CC(OCCN4CCCC4)(C6)C5)c3C)C2)C(C)(C)C)cc1` [Example 168, (S)-1-(6-(3-(benzo[d]thiazol-2-ylamino)-4-methyl-6,7-dihydropyrido[2,3-c]pyridazin-8(5H)-yl)-3-(1-(((1r,3R,5S,7R)-3,5-dimethyl-7-(2-(pyrrolidin-1-yl)ethoxy)adamantan-1-yl)methyl)-5-methyl-1H-pyrazol-4-yl)picolinoyl)-N—((S)-1-((2S,4R)-4-hydroxy-2-(((S)-1-(4-(4-methylthiazol-5-yl)phenyl)ethyl)carbamoyl)pyrrolidin-1-yl)-3,3-dimethyl-1-oxobutan-2-yl)piperidine-3-carboxamide], the DC50 on HiBiT-tagged BCL-xL is greater than 1670 nM. The GI50 in assay [1] amounted to 73 nM.
The matching figures for `Cc1ncsc1-c1ccc([C@H](C)NC(=O)[C@@H]2C[C@@H](O)CN2C(=O)[C@@H](NC(=O)CCC(=O)N2CCC[C@@H](NC(=O)c3nc(N4CCCc5c4nnc(Nc4nc6ccccc6s4)c5C)ccc3-c3cnn(CC45CC6(C)CC(C)(C4)CC(OCCN4CCCC4)(C6)C5)c3C)C2)C(C)(C)C)cc1` [Example 171]: greater than 1670 nM and 121 nM.
Regarding `Cc1ncsc1-c1ccc([C@H](C)NC(=O)[C@@H]2C[C@@H](O)CN2C(=O)[C@@H](NC(=O)[C@H]2C[C@H](NC(=O)c3nc(N4CCCc5c4nnc(Nc4nc6ccccc6s4)c5C)ccc3-c3cnn(CC45CC6(C)CC(C)(C4)CC(OCCN4CCCC4)(C6)C5)c3C)C2)C(C)(C)C)cc1` [Example 165, 6-(3-(benzo[d]thiazol-2-ylamino)-4-methyl-6,7-dihydropyrido[2,3-c]pyridazin-8(5H)-yl)-3-(1-(((1r,3R,5S,7s)-3,5-dimethyl-7-(2-(pyrrolidin-1-yl)ethoxy)adamantan-1-yl)methyl)-5-methyl-1H-pyrazol-4-yl)-N-((1S,3R)-3-(((S)-1-((2S,4R)-4-hydroxy-2-(((S)-1-(4-(4-methylthiazol-5-yl)phenyl)ethyl)carbamoyl)pyrrolidin-1-yl)-3,3-dimethyl-1-oxobutan-2-yl)carbamoyl)cyclobutyl)picolinamide], the DC50 on HiBiT-tagged BCL-xL was greater than 1670 nM. The GI50 in assay [1] stood at 35 nM.
In the same order, the values of `Cc1ncsc1-c1ccc([C@H](C)NC(=O)[C@@H]2C[C@@H](O)CN2C(=O)[C@@H](NC(=O)C[C@H]2CC[C@@H](NC(=O)c3nc(N4CCCc5c4nnc(Nc4nc6ccccc6s4)c5C)ccc3-c3cnn(CC45CC6(C)CC(C)(C4)CC(OCCN4CCCC4)(C6)C5)c3C)CC2)C(C)(C)C)cc1` [Example 163, 6-(3-(benzo[d]thiazol-2-ylamino)-4-methyl-6,7-dihydropyrido[2,3-c]pyridazin-8(5H)-yl)-3-(1-(((1r,3R,5S,7s)-3,5-dimethyl-7-(2-(pyrrolidin-1-yl)ethoxy)adamantan-1-yl)methyl)-5-methyl-1H-pyrazol-4-yl)-N-((1R,4S)-4-(2-(((S)-1-((2S,4R)-4-hydroxy-2-(((S)-1-(4-(4-methylthiazol-5-yl)phenyl)ethyl)carbamoyl)pyrrolidin-1-yl)-3,3-dimethyl-1-oxobutan-2-yl)amino)-2-oxoethyl)cyclohexyl)picolinamide] are 6 nM and 22 nM.
`Cc1ncsc1-c1ccc([C@H](C)NC(=O)[C@@H]2C[C@@H](O)CN2C(=O)[C@@H](NC(=O)CC2CC3(C2)CN(C(=O)c2nc(N4CCCc5c4nnc(Nc4nc6ccccc6s4)c5C)ccc2-c2cnn(CC45CC6(C)CC(C)(C4)CC(OCCN4CCCC4)(C6)C5)c2C)C3)C(C)(C)C)cc1` [Example 170, (2S,4R)-1-((S)-2-(2-(2-(6-(3-(benzo[d]thiazol-2-ylamino)-4-methyl-6,7-dihydropyrido[2,3-c]pyridazin-8(5H)-yl)-3-(1-(((1r,3R,5S,7s)-3,5-dimethyl-7-(2-(pyrrolidin-1-yl)ethoxy)adamantan-1-yl)methyl)-5-methyl-1H-pyrazol-4-yl)picolinoyl)-2-azaspiro [3.3]heptan-6-yl)acetamido)-3,3-dimethylbutanoyl)-4-hydroxy-N—((S)-1-(4-(4-methylthiazol-5-yl)phenyl)ethyl)pyrrolidine-2-carboxamide]: the DC50 at HiBiT-tagged BCL-xL came to 1 nM. Besides, the GI50 in assay [1] stood at 13 nM.
In the same order, the values of `Cc1ncsc1-c1ccc([C@H](C)NC(=O)[C@@H]2C[C@@H](O)CN2C(=O)[C@@H](NC(=O)[C@@H]2CCCN(C(=O)c3nc(N4CCCc5c4nnc(Nc4nc6ccccc6s4)c5C)ccc3-c3cnn(CC45CC6(C)CC(C)(C4)CC(OCCN4CCCC4)(C6)C5)c3C)C2)C(C)(C)C)cc1` [Example 169, (R)-1-(6-(3-(benzo[d]thiazol-2-ylamino)-4-methyl-6,7-dihydropyrido[2,3-c]pyridazin-8(5H)-yl)-3-(1-(((1r,3R,5S,7S)-3,5-dimethyl-7-(2-(pyrrolidin-1-yl)ethoxy)adamantan-1-yl)methyl)-5-methyl-1H-pyrazol-4-yl)picolinoyl)-N—((S)-1-((2S,4R)-4-hydroxy-2-(((S)-1-(4-(4-methylthiazol-5-yl)phenyl)ethyl)carbamoyl)pyrrolidin-1-yl)-3,3-dimethyl-1-oxobutan-2-yl)piperidine-3-carboxamide] are greater than 1670 nM and 6 nM.
